# In patent US20120088753A1, “PYRROLOPYRIMIDINES AND USED AS KINASE INHIBITORS” (MEDICAL RESEARCH COUNCIL TECHNOLOGY, priority 2009, published 2012):
# Target: T1, TBK1 (Homo sapiens, UniProt Q9UHD2)
# T1 construct: All protein kinases were of human origin and encoded full length proteins, unless indicated otherwise; His6; made in house; host or cells: insect Sf21 cells
# T1 sequence (Q9UHD2 1-729): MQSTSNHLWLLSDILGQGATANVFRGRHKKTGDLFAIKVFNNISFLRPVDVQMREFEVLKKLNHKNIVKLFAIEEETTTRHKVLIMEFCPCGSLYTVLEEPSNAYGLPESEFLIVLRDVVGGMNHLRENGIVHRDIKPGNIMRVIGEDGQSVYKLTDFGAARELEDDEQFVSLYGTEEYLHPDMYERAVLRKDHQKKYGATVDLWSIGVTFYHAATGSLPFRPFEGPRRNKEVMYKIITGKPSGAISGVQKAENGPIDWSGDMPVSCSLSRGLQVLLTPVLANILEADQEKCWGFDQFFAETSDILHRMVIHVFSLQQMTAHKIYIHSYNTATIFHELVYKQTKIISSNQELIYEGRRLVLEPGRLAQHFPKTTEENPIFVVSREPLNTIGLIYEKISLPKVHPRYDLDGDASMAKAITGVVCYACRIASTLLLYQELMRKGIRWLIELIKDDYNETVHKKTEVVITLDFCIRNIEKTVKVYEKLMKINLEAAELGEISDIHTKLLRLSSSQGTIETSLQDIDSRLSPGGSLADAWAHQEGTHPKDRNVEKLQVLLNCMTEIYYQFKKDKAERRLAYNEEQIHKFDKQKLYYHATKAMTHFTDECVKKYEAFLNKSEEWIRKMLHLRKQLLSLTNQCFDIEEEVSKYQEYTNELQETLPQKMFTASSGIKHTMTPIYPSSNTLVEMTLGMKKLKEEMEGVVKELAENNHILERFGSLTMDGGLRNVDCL
# Experiment: TBK1 protein kinase assay ([γ-33P]ATP filter-plate, IC50 from 10 concentrations)
# Assay type: biochemical
# Conditions: 50 μM ATP, peptide substrate 300 μM, 30 min, 21° C.; read-out: Potency score (TBK1 IC50)
# Description: All protein kinases were of human origin and encoded full length proteins, unless indicated otherwise. They were either expressed as glutathione S-transferase (GST) fusion proteins in Escherichia Coli or as hexahistidine (His6)-tagged proteins in insect Sf21 cells. GST fusion proteins were purified by affinity chromatography on glutathione-Sepharose, and His6-tagged proteins on nickel/nitriloacetate-agarose. The procedures for expressing some of the protein kinases used herein have been detailed previously.^8,9 The following sections outline the DNA vectors synthesised and the procedures used to express and purifying protein kinases that have not been reported previously.
# The following kinases were expressed in Sf21 cells: Aurora B and Aurora C, extra-cellular signal-regulated kinase 8 (ERK8), microtubule affinity regulating kinase 3 (MARK3), protein kinase Bα[118-480][S473D], protein kinase Bβ (PKBβ[120-481][S474D], 3-phosphoinositide-dependent protein kinase-1 [52-556] (PDK1[52-556], IKKε, TBK1,
# All assays (25.5 μl) were carried out at room temperature (21° C.) and were linear with respect to time and enzyme concentration under the conditions used. Assays were performed for 30 min using Multidrop Micro reagent dispensers (Thermo Electron Corporation, Waltham, Mass. 02454, USA) in a 96-well format. The concentration of magnesium acetate in the assays was 10 mM and the [γ-33P] ATP (800 cpm/pmol) was used at 5, 20 or 50 μM as indicated, in order to be at or below the Km for ATP for each enzyme. Protein kinases assayed at 5 μM ATP were: ERK1, ERK8, PKBα, MARK3, Aurora C. Protein kinases assayed at 20 μM ATP were: JNK1, PDK1, CHK1, CHK2, CDK2 and Aurora B. Protein kinases assayed at 50 μM ATP were: MNK2, IKKepsilon and TBK1.
# The assays were initiated with MgATP, stopped by addition of 5 μl of 0.5 M orthophosphoric acid and spotted on to P81 filterplates using a unifilter harvester (PerkinElmer, Boston, Mass. 02118, USA). The IC50 values of inhibitors were determined after carrying out assays at 10 different concentrations of each compound.
# ERK1 and ERK8 were both assayed against myelin basic protein (MBP, 0.33 mg/ml). MARK3 was assayed against the peptide […] (300 μM), MNK2 against the eIF4E protein (0.5 mg/ml). PKBβ was assayed against the peptide GRPRTSSFAEGKK (30 μM). TBK1 were assayed against ([…]) (300 μM). The substrates used for other protein kinases were described previously.^8,9
# Unless stated otherwise, enzymes were diluted in 50 mM Tris/HCl pH 7.5, 0.1 mM EGTA, 1 mg/ml BSA, 0.1% (v/v) 2-mercaptoethanol and assayed in 50 mM Tris/HCl pH 7.5, 0.1 mM EGTA, 0.1% (v/v) 2-mercaptoethanol.
row,SMILES,IC50
1,"CCCC(=O)NCCCn1ccc2cnc(Nc3ccc(N4CCOCC4)nc3)nc21 [Example 26, N-{3-[2-(6-Morpholin-4-yl-pyridin-3-ylamino)-pyrrolo[2,3-d]pyrimidin-7-yl]-propyl}-butyramide]",100 to 1000 nM
2,"O=C(NCCCn1ccc2cnc(Nc3cccc(F)c3)nc21)C1CCC1 [Example 27, Cyclobutanecarboxylic acid {3-[2-(3-fluoro-phenylamino)-pyrrolo[2,3-d]pyrimidin-7-yl]-propyl}-amide]",< 100 nM
3,"CC(=O)Nc1cccc(Nc2ncc3ccn(CCCNC(=O)C4CCC4)c3n2)c1 [Example 28, Cyclobutanecarboxylic acid {3-[2-(3-acetylamino-phenylamino)-pyrrolo[2,3-d]pyrimidin-7-yl]-propyl}-amide]",< 100 nM
4,"O=C(NCCCn1ccc2cnc(Nc3cccc(N4CCCC4=O)c3)nc21)C1CCC1 [Example 29, Cyclobutanecarboxylic acid (3-{2-[3-(2-oxo-pyrrolidin-1-yl)-phenylamino]-pyrrolo[2,3-d]pyrimidin-7-yl}-propyl)-amide]",100 to 1000 nM
5,"O=C(NCCCn1ccc2cnc(Nc3ccc(N4CCOCC4)nc3)nc21)C1CCC1 [Example 30, Cyclobutanecarboxylic acid {3-[2-(6-morpholin-4-yl-pyridin-3-ylamino)-pyrrolo[2,3-d]pyrimidin-7-yl]propyl}-amide]",< 100 nM
6,"CN1CCN(c2ccc(Nc3ncc4ccn(CCCNC(=O)C5CCC5)c4n3)cn2)CC1 [Example 31, Cyclobutanecarboxylic acid (3-{2-[6-(4-methyl-piperazin-1-yl)-pyridin-3-ylamino]-pyrrolo[2,3-d]pyrimidin-7-yl}-propyl)-amide]",100 to 1000 nM
7,"O=C(NCCCn1ccc2cnc(Nc3cccc(F)c3)nc21)C1CCCC1 [Example 32, Cyclopentanecarboxylic acid {3-[2-(3-fluoro-phenylamino)-pyrrolo[2,3-d]pyrimidin-7-yl]-propyl}-amide]",100 to 1000 nM
8,"CC(=O)Nc1cccc(Nc2ncc3ccn(CCCNC(=O)C4CCCC4)c3n2)c1 [Example 33, Cyclopentanecarboxylic acid {3-[2-(3-acetylamino-phenylamino)-pyrrolo[2,3-d]pyrimidin-7-yl]-propyl}-amide]",< 100 nM
9,"O=C(NCCCn1cc(Cl)c2cnc(Nc3cccc(F)c3)nc21)C1CCC1 [Example 34, Cyclobutanecarboxylic acid {3-[5-chloro-2-(3-fluoro-phenylamino)-pyrrolo[2,3-d]pyrimidin-7-yl]-propyl}-amide]",< 100 nM
10,"O=C(NCCCn1cc(Cl)c2cnc(Nc3ccc(N4CCOCC4)nc3)nc21)C1CCC1 [Example 35, Cyclobutanecarboxylic acid {3-[5-chloro-2-(6-morpholin-4-yl-pyridin-3-ylamino)-pyrrolo[2,3-d]pyrimidin-7-yl]-propyl}-amide]",< 100 nM
11,"O=C(NCCCn1cc(Br)c2cnc(Nc3cccc(F)c3)nc21)C1CCC1 [Example 36, Cyclobutanecarboxylic acid {3-[5-bromo-2-(3-fluoro-phenylamino)-pyrrolo[2,3-d]pyrimidin-7-yl]-propyl}-amide]",< 100 nM
12,"N#Cc1cn(CCCNC(=O)C2CCC2)c2nc(Nc3cccc(F)c3)ncc12 [Example 37, Cyclobutanecarboxylic acid {3-[5-cyano-2-(3-fluoro-phenylamino)-pyrrolo[2,3-d]pyrimidin-7-yl]-propyl}-amide]",100 to 1000 nM
13,"O=C(NCCCn1cc(Cl)c2cnc(Nc3cccc(F)c3)nc21)c1cccs1 [Example 38, Thiophene-2-carboxylic acid {3-[5-chloro-2-(3-fluoro-phenylamino)-pyrrolo[2,3-d]pyrimidin-7-yl]-propyl}-amide]",100 to 1000 nM
14,"O=C(NCCCn1ccc2cnc(Nc3ccc(N4CCCC4=O)cc3)nc21)C1CCC1 [Example 39, Cyclobutanecarboxylic acid (3-{2-[4-(2-oxo-pyrrolidin-1-yl)-phenylamino]-pyrrolo[2,3-d]pyrimidin-7-yl}-propyl)-amide]",< 100 nM
15,"O=C(NCCCn1ccc2cnc(Nc3ccc4[nH]ncc4c3)nc21)C1CCC1 [Example 40, Cyclobutanecarboxylic acid {3-[2-(1H-indazol-5-ylamino)-pyrrolo[2,3-d]pyrimidin-7-yl]-propyl}-amide]",< 100 nM
16,"O=C(NCCCn1ccc2cnc(Nc3cccc(-n4cncn4)c3)nc21)C1CCC1 [Example 41, Cyclobutanecarboxylic acid {3-[2-(3-1,2,4-triazol-1-yl-phenylamino)-pyrrolo[2,3-d]pyrimidin-7-yl]-propyl}-amide]",< 100 nM
17,"O=C(NCCCn1ccc2cnc(Nc3cccnc3)nc21)C1CCC1 [Example 43, Cyclobutanecarboxylic acid {3-[2-(pyridin-3-ylamino)-pyrrolo[2,3-d]pyrimidin-7-yl]-propyl}-amide]",< 100 nM
18,"Cn1ncc2cc(Nc3ncc4ccn(CCCNC(=O)C5CCC5)c4n3)cnc21 [Example 44, Cyclobutanecarboxylic acid {3-[2-(1-methyl-1H-pyrazolo[3,4-b]pyridin-5-ylamino)-pyrrolo[2,3-d]pyrimidin-7-yl]-propyl}-amide]",< 100 nM
19,"O=C(NCCCn1ccc2cnc(Nc3ccc4nccn4c3)nc21)C1CCC1 [Example 45, Cyclobutanecarboxylic acid {3-[2-(imidazo[1,2-a]pyridin-6-ylamino)-pyrrolo[2,3-d]pyrimidin-7-yl]-propyl}amide]",< 100 nM
20,"O=C(NCCCn1ccc2cnc(Nc3ccc4nccnc4c3)nc21)C1CCC1 [Example 46, Cyclobutanecarboxylic acid {3-[2-(quinoxalin-6-ylamino)-pyrrolo[2,3-d]pyrimidin-7-yl]-propyl}-amide]",< 100 nM
21,"CCn1cc(Nc2ncc3ccn(CCCNC(=O)C4CCC4)c3n2)cn1 [Example 47, Cyclobutanecarboxylic acid {3-[2-(1-ethyl-1H-pyrazol-4-ylamino)-pyrrolo[2,3-d]pyrimidin-7-yl]-propyl}-amide]",< 100 nM
22,"O=C(NCCCn1ccc2cnc(Nc3cccc(N4CCOCC4)c3)nc21)C1CCC1 [Example 48, Cyclobutanecarboxylic acid {3-[2-(3-morpholin-4-yl-phenylamino)-pyrrolo[2,3-d]pyrimidin-7-yl]-propyl}-amide]",< 100 nM
23,"O=C(NCCCn1ccc2cnc(Nc3cccc(CN4CCCCC4)c3)nc21)C1CCC1 [Example 49, Cyclobutanecarboxylic acid {3-[2-(3-piperidin-1-ylmethyl-phenylamino)-pyrrolo[2,3-d]pyrimidin-7-yl]-propyl}-amide]",< 100 nM
24,"O=C(NCCCn1ccc2cnc(Nc3ccc4ncccc4c3)nc21)C1CCC1 [Example 50, Cyclobutanecarboxylic acid {3-[2-(quinolin-6-ylamino)-pyrrolo[2,3-d]pyrimidin-7-yl]-propyl}-amide]",< 100 nM
25,"CC(C)N1CCC(n2cc(Nc3ncc4ccn(CCCNC(=O)C5CCC5)c4n3)cn2)CC1 [Example 51, Cyclobutanecarboxylic acid (3-{2-[1-(1-isopropyl-piperidin-4-yl)-1H-pyrazol-4-ylamino]-pyrrolo[2,3-d]pyrimidin-7-yl}-propyl)-amide]",< 100 nM
